Consider 6 compounds from patent US8829010B2, “Pyrazolo[3,4-d]pyrimidine compounds and their use as PDE2 inhibitors and/or CYP3A4 inhibitors” (Pfizer Inc., priority 2011, dated 2014).

pIC50: −log10 of the molar value. Several values for one entry are separate records, joined by “and”; a condition that tells them apart may be missing. Equal entries are not always repeated. Where two headings read alike, the source gives them in different places. Some results are limits rather than exact numbers.

Series [1] concerns the target T1, human full-length PDE2A3 enzyme (Homo sapiens (Human), UniProt O00408). Put plainly: Recombinant human PDE2A3 inhibition by [3H]-cGMP scintillation proximity assay (SPA). Format: biochemical. For orientation: In a scintillation proximity assay essentially only radioactivity close to the scintillant gives light.
The target of series [2] is T1, human full-length PDE2A3 enzyme. Particulars: literature values; IC50 values obtained were within 3× of these; read-out: PDE2 IC50, literature values of control compounds; cited from earlier work.
In series [3] the target is CYP3A5 (Homo sapiens (Human), UniProt P20815). Nature of the series: biochemical.
In series [4] the target is CYP3A4 (Homo sapiens (Human), UniProt P08684). Put plainly: biochemical.
For series [5], the target named is CYP3A4 versus CYP3A5 (Homo sapiens (Human), UniProt P08684). Nature of the series: in vitro.
Where [6] appears, read: Geometric mean of 2-5 determinations unless otherwise indicated (a: single determination; b: 7-8 determinations).

Broadly, the pIC50 is −log10 of the IC50, conventionally taken in molar units. The inhibition is how much of the control response was suppressed.

T1 sequence (O00408 whole entry): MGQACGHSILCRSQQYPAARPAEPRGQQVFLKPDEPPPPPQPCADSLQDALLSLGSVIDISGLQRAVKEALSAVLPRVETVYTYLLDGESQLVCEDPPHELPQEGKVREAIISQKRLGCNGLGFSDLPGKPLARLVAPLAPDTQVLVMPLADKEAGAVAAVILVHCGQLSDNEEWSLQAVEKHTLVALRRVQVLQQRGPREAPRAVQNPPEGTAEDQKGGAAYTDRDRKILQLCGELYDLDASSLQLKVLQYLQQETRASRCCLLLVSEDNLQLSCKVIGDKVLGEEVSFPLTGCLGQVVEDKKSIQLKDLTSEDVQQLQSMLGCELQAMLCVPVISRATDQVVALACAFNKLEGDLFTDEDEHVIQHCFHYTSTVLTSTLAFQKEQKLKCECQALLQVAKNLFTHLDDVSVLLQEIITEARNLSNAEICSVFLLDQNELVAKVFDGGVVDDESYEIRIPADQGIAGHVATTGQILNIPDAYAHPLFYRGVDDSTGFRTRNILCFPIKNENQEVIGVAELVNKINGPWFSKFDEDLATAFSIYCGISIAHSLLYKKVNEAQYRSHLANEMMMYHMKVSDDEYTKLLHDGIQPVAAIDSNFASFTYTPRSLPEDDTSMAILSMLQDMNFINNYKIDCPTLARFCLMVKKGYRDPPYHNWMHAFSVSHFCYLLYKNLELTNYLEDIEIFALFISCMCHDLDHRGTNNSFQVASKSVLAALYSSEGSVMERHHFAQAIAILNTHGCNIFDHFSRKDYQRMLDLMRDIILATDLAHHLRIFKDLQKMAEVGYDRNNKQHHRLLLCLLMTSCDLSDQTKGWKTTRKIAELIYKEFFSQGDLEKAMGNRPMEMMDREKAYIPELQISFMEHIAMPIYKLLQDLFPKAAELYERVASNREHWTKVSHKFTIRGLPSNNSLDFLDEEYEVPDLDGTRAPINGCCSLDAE
Sequence of CYP3A5 (P20815 whole entry): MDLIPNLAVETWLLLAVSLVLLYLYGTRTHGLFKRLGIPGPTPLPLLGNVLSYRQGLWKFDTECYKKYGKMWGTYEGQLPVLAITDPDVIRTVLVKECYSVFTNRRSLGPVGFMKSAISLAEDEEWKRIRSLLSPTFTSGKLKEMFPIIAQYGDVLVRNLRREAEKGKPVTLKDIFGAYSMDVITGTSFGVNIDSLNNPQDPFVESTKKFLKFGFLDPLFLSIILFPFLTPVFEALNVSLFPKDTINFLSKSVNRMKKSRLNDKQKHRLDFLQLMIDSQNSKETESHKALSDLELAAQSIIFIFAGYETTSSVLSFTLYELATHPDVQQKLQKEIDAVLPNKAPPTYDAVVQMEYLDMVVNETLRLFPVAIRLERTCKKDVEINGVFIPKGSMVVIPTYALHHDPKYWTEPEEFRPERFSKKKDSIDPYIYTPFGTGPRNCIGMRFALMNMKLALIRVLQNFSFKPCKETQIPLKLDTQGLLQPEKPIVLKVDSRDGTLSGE
Sequence of CYP3A4 (P08684 whole entry): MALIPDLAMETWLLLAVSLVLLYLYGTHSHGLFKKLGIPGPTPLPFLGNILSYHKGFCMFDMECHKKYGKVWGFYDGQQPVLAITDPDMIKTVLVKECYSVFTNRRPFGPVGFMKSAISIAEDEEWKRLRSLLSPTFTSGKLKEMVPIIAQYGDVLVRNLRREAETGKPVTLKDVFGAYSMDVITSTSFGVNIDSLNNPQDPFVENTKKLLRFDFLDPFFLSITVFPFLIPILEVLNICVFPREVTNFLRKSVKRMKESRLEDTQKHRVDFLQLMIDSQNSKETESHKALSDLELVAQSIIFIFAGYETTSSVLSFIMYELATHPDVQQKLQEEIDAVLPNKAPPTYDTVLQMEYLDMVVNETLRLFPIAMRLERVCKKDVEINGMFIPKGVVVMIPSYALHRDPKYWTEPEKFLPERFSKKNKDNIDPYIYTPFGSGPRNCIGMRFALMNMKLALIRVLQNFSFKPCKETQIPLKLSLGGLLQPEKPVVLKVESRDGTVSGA
Sequence of CYP3A4 versus CYP3A5 (P08684 whole entry): as above

Consider “3-[5-(4-chloro-3- fluorophenyl)-1- methyl-1H-pyrazol- 4-yl]-1-methyl-4-[3- (1-methyl-1H- pyrazol-3- yl)azetidin-1-yl]-1H- pyrazolo[3,4- d]pyrimidine [Example 19]”, for which the pIC50 in series [1] is over 8.54.
Regarding `CCCCCC[C@@H]([C@@H](C)O)n1cnc2c(N)ncnc21` (racemic) [EHNA, erythro-9-(2-hydroxy-3-nonyl) adenine], the pIC50 in series [2] was 5.77.
Consider `Cc1ccc(-c2c(-c3nn(C)c4ncnc(N5CC[C@H](N6CCCCC6)C5)c34)cnn2C)cc1` [Example 2, 1-Methyl-3-[1-methyl-5-(4-methylphenyl)-1H-pyrazol-4-yl]-4-[(3S)-3-(piperidin-1-yl)pyrrolidin-1-yl]-1H-pyrazolo[3,4-d]pyrimidine], for which the negative logarithm of the IC50 (pIC50) in series [3] was 5.01; in series [4], 7.18 and 6.91.
Turning to `Cn1ncc(-c2nn(C)c3ncnc(N4CC(F)C4)c23)c1-c1ccc(C2CC2)cc1` [Example 3, 3-[5-(4-Cyclopropylphenyl)-1-methyl-1H-pyrazol-4-yl]-4-(3-fluoroazetidin-1-yl)-1-methyl-1H-pyrazolo[3,4-d]pyrimidine], the pIC50 in series [1] (setting [6]) was over 8.88.
Same read-out and setting: the same measure for `COC(=O)NC1CN(c2ncnc3c2c(-c2cnn(C)c2-c2ccc(C4CC4)cc2)nn3C)C1` [Example 23, methyl (1-{3-[5-(4-cyclopropylphenyl)-1-methyl-1H-pyrazol-4-yl]-1-methyl-1H-pyrazolo[3,4-d]pyrimidin-4-yl}azetidin-3-yl)carbamate]: over 8.68.
On to `CCc1ccc(-c2c(-c3nn(C)c4ncnc(N5CC[C@H](N6CCCCC6)C5)c34)cnn2C)cc1` [Example 56, 3-[5-(4-ethylphenyl)-1-methyl-1H-pyrazol-4-yl]-1-methyl-4-[(3S)-3-(piperidin-1-yl)pyrrolidin-1-yl]-1H-pyrazolo[3,4-d]pyrimidine], for which the selectivity ratio is 87 in series [5] (probe midazolam) and 98 in series [5] (probe testosterone). The pIC50 in series [3] was 5.46 and 5.16; in series [4], 7.40 and 7.15. Moreover, the inhibition at 0.316 µM in series [1] (at 316 nM, single determination) is 41%.
